Bounds are passed on as bounds.

Type in all cases: cell-based
The subject of assay [1] is Staphylococcus aureus ATCC 6538-P. The assay is described as follows: Disk diffusion agar antimicrobial activity, S. aureus. The following applies: 25 mg/ml, 37° C. for 24 hours, mean values; for zone of inhibition at 25000 µg/mL: Staphylococcus aureus, ATCC6538, 24 h, read-out: Bacterial and fungal growth inhibition zone diameter (mm), S. aureus. As for the experimental part: (§1) As used herein, “inhibition zone diameter” refers to a measurement that indicates how effective an antimicrobial is against a bacterium. The diameter of the zone of inhibition can be used to determine the level of sensitivity of the bacterium to the antimicrobial. In laboratory testing, such as the disk diffusion method (Kirby-Bauer test), a paper disk impregnated with the antimicrobial agent is placed on an agar plate inoculated with the microorganism. After incubation, the diameter of the clear zone (inhibition zone) around the disk is measured.
(§2) The reaction conditions and mechanisms are described in subsequent examples. The successful fabrication of the testosterone-based thiazolidinone derivatives was confirmed by different analytical techniques. The antimicrobial activity of newly prepared testosterone-based thiazolidinone derivatives was evaluated against various microorganisms, including Staphylococcus aureus ATCC 6538-P, Escherichia coli ATCC 25933, Candida albicans ATCC 10231, and Aspergillus niger NRRL-A326.
(§3) The antimicrobial activity of the synthesized testosterone-based thiazolidinone derivatives (compound (I), compound (II), and compound (III)) were assessed utilizing the disk diffusion agar methodology. Four representative microbial strains were selected for this study: Staphylococcus aureus ATCC 6538-P (Gram-positive), Escherichia coli ATCC 25933 (Gram-negative), Candida albicans ATCC 10231, and Aspergillus niger NRRL-A326. Nutrient agar plates were uniformly inoculated with 0.1 mL of a cell suspension at a density of […] to 10^6 cells/mL for both bacterial and yeast cultures. Following inoculation, samples were introduced onto the agar plates. The plates were subsequently incubated at refrigeration temperature (4° C.) for 2 to 4 hours to enhance the diffusion of the antimicrobial agents. Thereafter, the plates were incubated at 37° C. for 24 hours for bacterial growth and at 30° C. for 48 hours for yeast and fungal growth, maintaining an upright orientation to maximize the growth of the microorganisms. The antimicrobial activity of the testosterone-based thiazolidinone derivatives was quantified by measuring the diameter of the zone of inhibition, which was reported in millimeters (mm). The concentration of the tested testosterone-based thiazolidinone derivatives was 25 mg/ml. This experimental protocol was replicated multiple times, and the mean values of the observed readings were recorded.
In general terms: Agar diffusion results depend on both activity and mobility in agar.

Assay [2] has as its system Aspergillus niger NRRL-A326. Nature of the assay: Disk diffusion agar antimicrobial activity, A. niger. To be noted: 30° C. for 48 hours, mean values; for zone of inhibition at 25000 µg/mL: Aspergillus niger, NRRLA326, 25 mg/ml, read-out: Bacterial and fungal growth inhibition zone diameter (mm), A. niger; for Bacterial and fungal growth inhibition zone diameter (mm), A. niger: 25 mg/ml. As for the experimental part: as §1, §2, §3

Assay [3] concerns Candida albicans ATCC 10231. The assay is described as follows: Disk diffusion agar antimicrobial activity, C. albicans. To be noted: 25 mg/ml, 30° C. for 48 hours, mean values; for zone of inhibition at 25000 µg/mL: Candida albicans, ATCC10231, 48 h, read-out: Bacterial and fungal growth inhibition zone diameter (mm), C. albicans. The method, then: as §1, §2, §3
Assay [4] has as its system Escherichia coli ATCC 25933. The assay is described as follows: Disk diffusion agar antimicrobial activity, E. coli. To be noted: 25 mg/ml, 37° C. for 24 hours, mean values; for zone of inhibition at 25000 µg/mL: Escherichia coli, ATCC25933, 24 h, read-out: Bacterial and fungal growth inhibition zone diameter (mm), E. coli. The method, then: as §1, §2, §3
The mark [5] stands for this setting: listed as compound III where Ar is C6H5.
Where [6] appears, read: listed as compound III where Ar is 4-ClC6H4.
The mark [7] stands for this setting: listed as compound III where Ar is CH2C6H4.

In the case of `COC(=O)/C=C1/S/C(=N\N=C2\C=C3CC[C@H]4[C@@H]5CC[C@H](O)[C@@]5(C)CC[C@@H]4[C@@]3(C)CC2)NC1=O` [Compound II], in assay [1], the “Bacterial and fungal growth inhibition zone diameter (mm), S. aureus” value was 29 mm; the zone of inhibition at 25000 µg/mL was at least 29 mm. For the same compound, the zone of inhibition at 25000 µg/mL in assay [2] is 0 mm. In assay [3], the “Bacterial and fungal growth inhibition zone diameter (mm), C. albicans” value is given as 29 mm; the zone of inhibition at 25000 µg/mL was at least 29 mm. Further, in assay [4], the “Bacterial and fungal growth inhibition zone diameter (mm), E. coli” value is 26 mm; the zone of inhibition at 25000 µg/mL is at least 26 mm.

`C[C@]12CC[C@H]3[C@@H](CCC4=C/C(=N/NC(N)=S)CC[C@@]43C)[C@@H]1CC[C@@H]2O` [Compound I]: the zone of inhibition at 25000 µg/mL in assay [1], in assay [2], in assay [3] and in assay [4] was 0 mm each time.

Consider `CC12CCC(=NN=C3NC(=O)C(CC(=O)Nc4ccccc4)S3)C=C1CCC1C2CCC2(C)C(O)CCC12` (centres unmarked) [Compound III Ar = C6H5], for which the “Bacterial and fungal growth inhibition zone diameter (mm), S. aureus” value is 35 mm in assay [1] and “at least 35 mm” in assay [1] (setting [5]). Moreover, the “Bacterial and fungal growth inhibition zone diameter (mm), A. niger” value is listed as 37 mm in assay [2] and “at least 37 mm” in assay [2] (setting [5]). Further, the “Bacterial and fungal growth inhibition zone diameter (mm), C. albicans” value is given as 36 mm in assay [3] and “at least 36 mm” in assay [3] (setting [5]). The results for the “Bacterial and fungal growth inhibition zone diameter (mm), E. coli” value in assay [4] and in assay [4] (setting [5]) were 32 mm and “at least 32 mm”, respectively.

In the case of `CC12CCC(=NN=C3NC(=O)C(CC(=O)Nc4ccc(Cl)cc4)S3)C=C1CCC1C2CCC2(C)C(O)CCC12` (centres unmarked) [Compound III Ar = 4-ClC6H4], the “Bacterial and fungal growth inhibition zone diameter (mm), S. aureus” value is 38 mm in assay [1] and “at least 38 mm” in assay [1] (setting [6]). For the same compound, the results for the “Bacterial and fungal growth inhibition zone diameter (mm), A. niger” value in assay [2] and in assay [2] (setting [6]) were 43 mm and “at least 43 mm”, respectively. Besides, the figures for the “Bacterial and fungal growth inhibition zone diameter (mm), C. albicans” value in assay [3] and in assay [3] (setting [6]) were 41 mm and “at least 41 mm”, respectively. In addition, the results for the “Bacterial and fungal growth inhibition zone diameter (mm), E. coli” value in assay [4] and in assay [4] (setting [6]) were 39 mm and “at least 39 mm”, respectively.

With `CC12CCC(=NN=C3NC(=O)C(CC(=O)NCc4ccccc4)S3)C=C1CCC1C2CCC2(C)C(O)CCC12` (centres unmarked) [Compound III Ar = CH2C6H4], the results for the “Bacterial and fungal growth inhibition zone diameter (mm), S. aureus” value in assay [1] and in assay [1] (setting [7]) were 19 mm and “at least 19 mm”, respectively. The “Bacterial and fungal growth inhibition zone diameter (mm), A. niger” value in assay [2] is 44 mm; in assay [2] (setting [7]) it was “at least 44 mm”. In addition, the “Bacterial and fungal growth inhibition zone diameter (mm), C. albicans” value in assay [3] is listed as 21 mm; in assay [3] (setting [7]) it was “at least 21 mm”. The figures for the “Bacterial and fungal growth inhibition zone diameter (mm), E. coli” value in assay [4] and in assay [4] (setting [7]) were 17 mm and “at least 17 mm”, respectively.

(Values after patent US12358943B1, “Method of synthesizing testosterone-based thiazolidinone derivatives” (IMAM MOHAMMAD IBN SAUD ISLAMIC UNIVERSITY, priority 2025, dated 2025).)
